Assay results from ChEMBL document CHEMBL4368892, “Isatin and its derivatives: a survey of recent syntheses, reactions, and applications” (Medchemcomm, 2019).

Biological target: Histone deacetylase
Test: Inhibition of HDAC (unknown origin)
Format: protein assay, Homo sapiens

IC50 [µM]	SMILES
0.97	O=C(CNC(=S)N/N=C1\C(=O)Nc2ccc(Cl)cc21)NO

Test system: LoVo
Test: Antiproliferative activity against human LoVo cells by WST-1 assay
Format: functional, cell-based

SMILES	IC50 [µM]
Cc1ccc2nc(SCC(=O)N/N=C3\C(=O)Nc4ccc([N+](=O)[O-])cc43)n(-c3ccccc3)c(=O)c2c1	9.91 to 17.9
Cc1ccc2nc(SCC(=O)N/N=C3\C(=O)Nc4ccc(F)cc43)n(-c3ccccc3)c(=O)c2c1	9.91 to 17.9
Cc1ccc2nc(SCC(=O)N/N=C3\C(=O)Nc4ccc(Cl)cc43)n(Cc3ccccc3)c(=O)c2c1	9.91 to 17.9
O=C(CSc1nc2ccccc2c(=O)n1CCc1ccccc1)N/N=C1\C(=O)Nc2ccc(Cl)cc21	9.91 to 17.9
O=C(CSc1nc2ccccc2c(=O)n1CCc1ccccc1)N/N=C1\C(=O)Nc2ccccc21	9.91 to 17.9
Cc1ccc2nc(SCC(=O)N/N=C3\C(=O)Nc4ccccc43)n(Cc3ccccc3)c(=O)c2c1	9.91 to 17.9
Cc1ccc2nc(SCC(=O)N/N=C3\C(=O)Nc4ccc(F)cc43)n(Cc3ccccc3)c(=O)c2c1	9.91 to 17.9
Cc1ccc2nc(SCC(=O)N/N=C3\C(=O)Nc4ccc([N+](=O)[O-])cc43)n(Cc3ccccc3)c(=O)c2c1	9.91 to 17.9

The next lines start with the values.

IC50 [µM]	SMILES
9.91 to 17.9	Cc1ccc2nc(SCC(=O)N/N=C3\C(=O)Nc4ccccc43)n(-c3ccccc3)c(=O)c2c1
9.91 to 17.9	O=C(CSc1nc2ccccc2c(=O)n1Cc1ccccc1)N/N=C1\C(=O)Nc2ccc([N+](=O)[O-])cc21
9.91 to 17.9	O=C(CSc1nc2ccccc2c(=O)n1-c1ccccc1)N/N=C1\C(=O)Nc2ccc(Cl)cc21
9.91 to 17.9	Cc1ccc2nc(SCC(=O)N/N=C3\C(=O)Nc4ccc(Cl)cc43)n(-c3ccccc3)c(=O)c2c1
9.91 to 17.9	O=C(CSc1nc2ccccc2c(=O)n1CCc1ccccc1)N/N=C1\C(=O)Nc2ccc(F)cc21
9.91 to 17.9	O=C(CSc1nc2ccccc2c(=O)n1-c1ccccc1)N/N=C1\C(=O)Nc2ccc([N+](=O)[O-])cc21
